Among the data in US12492197B2, “3,5-disubstituted pyrazole compounds as kinase inhibitors and uses thereof” (IMPACT THERAPEUTICS (SHANGHAI), INC, priority 2019, dated 2025) are inhibition and IC50 values, retold here.

Some results are limits rather than exact numbers.

One test has as its target T1, CHK1 kinase (Homo sapiens, UniProt O14757).
T1 construct: purchased Promega V1941
T1 sequence (O14757 1-476): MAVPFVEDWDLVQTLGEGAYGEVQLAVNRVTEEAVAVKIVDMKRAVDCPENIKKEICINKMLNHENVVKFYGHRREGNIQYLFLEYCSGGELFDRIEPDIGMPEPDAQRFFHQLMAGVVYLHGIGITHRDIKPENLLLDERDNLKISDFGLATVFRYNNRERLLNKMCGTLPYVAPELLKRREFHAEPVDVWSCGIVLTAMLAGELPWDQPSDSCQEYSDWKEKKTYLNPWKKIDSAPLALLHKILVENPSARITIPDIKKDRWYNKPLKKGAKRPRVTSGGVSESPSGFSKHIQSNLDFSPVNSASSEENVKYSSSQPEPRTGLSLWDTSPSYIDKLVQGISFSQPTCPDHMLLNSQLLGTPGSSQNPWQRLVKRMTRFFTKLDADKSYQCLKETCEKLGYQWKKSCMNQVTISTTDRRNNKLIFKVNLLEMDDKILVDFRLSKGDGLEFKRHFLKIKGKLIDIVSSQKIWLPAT
Briefly: CHK1 kinase inhibition, ADP-Glo kinase assay. The format is biochemical. Particulars: compound concentration 10 nM; ATP 10 μM; CHK1 1 ng/well; read-out: Inh % (inhibitory effect on CHK1 kinase activity). As to the method:
2 μL of kinase CHK1 (#V1941, Promega), 1 μL of compound diluted with buffer, and 2 μL of ATP substrate was successively added to a 384-well plate (final concentration of CHK1 was 1 ng/well, ATP was 10 μM). The positive control wells contained CHK1, ATP and DMSO whereas the negative control wells contained ATP, DMSO without enzyme. The mixtures were centrifuged at 1000 rpm for 1 minute and kept in darkness at room temperature for 1 hour to react. Then, 5 μL of ADP-Glo reagent was added to each well and incubated at room temperature for 40 minutes. At the end of incubation, 10 μL of kinase detection reagent was added to each well, and the relative chemiluminescence values (RLU) were measured on Varioskan® Flash (Thermo). The following calculation was performed: Inhibition rate %=(RLU of positive control−RLU of compound)/(RLU of positive control−RLU of negative control)×100. Data were analyzed using GraphPad Prism6.0 and fitted using the curve equation: Y=Bottom+(Top-Bottom)/(1+10^((Log IC50−X)*HillSlope)), and IC50 values were calculated.
(ADP-Glo turns the ADP formed in a reaction into a luminescent signal.)

Test [1] relates to human colon cancer cell LoVo. Briefly: Proliferation of LoVo cells, MTT assay. Particulars: 96 h, 4 days treatment, read-out: IC50 (inhibition of proliferation of LoVo). The format is cell-based. As to the method:
Newly revived LoVo cells (purchased from Shanghai Cell Institute) were cultured and passaged for at least three generations before use. Cells were used at 90% confluence for experiment. Cells were digested with trypsinase and centrifuged at 800 rpm for 5 minutes and the supernatant was discarded. The cell pellets were resuspended in fresh RPMI1640 medium and counted. Cells were seeded on 96-well cell culture plates at 5000 cells/well and incubated overnight at 37° C., 5% CO2. The stock solutions of the test substances (including the test compounds and the reference compound) were serially diluted to 8 concentrations with DMSO at a ratio of 1:3. 5 μL of each series diluted solutions was added to 120 μL of medium (diluted by 25 times) and mixed by shaking. […] The cell culture plates were returned to incubator at 37° C. and 5% CO2 for 4 days. At the end of treatment, the cell viability was determined by MTT colorimetric assay. Cell culture medium in each well was replaced by 100 μL/well of serum-free DMEM medium containing MTT (0.5 mg/mL), and the culture was continued for additional 4 hours. Medium was then discarded and 100 μL/well of DMSO was added.
(§1) Data was analyzed by GraphPad Prism 6.0. The inhibitory effects of compounds on cell proliferation were plotted based on cell viability vs. the logarithm of compound concentration. Cell viability %=(ODcompound−ODbackground)/(ODDMSO−ODbackground)×100.

Test [2] has as its system human breast cancer cell HCC1806. Briefly: Proliferation of HCC1806 cells, MTT assay. Format: cell-based. Particulars: HCC1806, 72 h, 3 days treatment, read-out: IC50 (inhibition of proliferation of HCC1806). As to the method:
Newly revived HCC1806 cells (purchased from Guangzhou Genio) were cultured and passaged for at least three generations before use. Cells were used at 90% confluency for experiments. Cells were digested with trypsinase and centrifuged at 800 rpm for 5 minutes. The cell pellets were resuspended in fresh RPMI1640 medium and cells were counted. Cells were seeded on 96-well cell culture plates at 2000 cells/well and incubated overnight at 37° C., 5% CO2. The stock solutions of the test substances (including the test compounds and the reference compound) were serially diluted to 8 concentrations with DMSO at a ratio of 1:3. Five μL of each of the serially diluted solutions were added to 120 μL of medium (diluted by 25 times) and mixed by shaking. […] The cell culture plates were returned to incubator at 37° C., 5% CO2 for 3 days. At the end of treatment the cell viability was determined by MTT colorimetric assay. Cell culture medium in each well was replaced by 100 μL/well of serum-free fresh medium containing MTT (0.5 mg/mL), and the culture was continued for additional 4 hours.
as §1

Take `COc1cccc(OC[C@@H]2CNCCO2)c1-c1cc(Nc2cnc(C)cn2)n[nH]1` [Example 6, (S)—N-(5-(2-methoxy-6-(morpholin-2-ylmethoxy)phenyl)-1H-pyrazol-3-yl)-5-methylpyrazin-2-amine]: at CHK1 kinase, the inhibition at 0.01 µM is 85%. The figures for the IC50 in test [1] and in test [2] were 192 nM and 187 nM, respectively.
For `COc1cccc(OC[C@H]2COCCN2)c1-c1cc(Nc2cnc(C#N)cn2)n[nH]1` [Example 7, (R)-5-((5-(2-methoxy-6-(morpholin-3-ylmethoxy)phenyl)-1H-pyrazol-3-yl)amino)pyrazine-2-carbonitrile] the same measures were 95%, 30.1 nM and 37.6 nM.
For `COc1cccc(OC[C@@H]2CNCCN2)c1-c1cc(Nc2cnc(C#N)cn2)n[nH]1` [Example 10, (S)-5-((5-(2-methoxy-6-(piperazin-2-ylmethoxy)phenyl)-1H-pyrazol-3-yl)amino)pyrazine-2-carbonitrile] the same measures were 95%, 23 nM and 24.8 nM.
As for `COc1cccc(OC[C@@H]2CNCCN2C)c1-c1cc(Nc2cnc(C#N)cn2)n[nH]1` [Example 11, (S)-5-((5-(2-methoxy-6-((1-methylpiperazin-2-yl)methoxy)phenyl)-1H-pyrazol-3-yl)amino)pyrazine-2-carbonitrile], at CHK1 kinase, the inhibition at 0.01 µM came out at 4.9%. Further, the IC50 in test [1] and in test [2] was over 1000 nM in each case.
In the case of `COc1cc(C(F)(F)F)cc(OC[C@@H]2CNCCO2)c1-c1cc(Nc2cnc(C#N)cn2)n[nH]1` [Example 19, (S)-5-((5-(2-methoxy-6-(morpholin-2-ylmethoxy)-4-(trifluoromethyl)phenyl)-1H-pyrazol-3-yl)amino)pyrazine-2-carbonitrile], the inhibition at 0.01 µM on CHK1 kinase came out at 91%. In addition, the IC50 in test [1] was 31.2 nM; in test [2], 31.4 nM.
Turning to `N#Cc1cnc(Nc2cc(-c3c(OC[C@@H]4CNCCO4)cccc3OC(F)(F)F)[nH]n2)cn1` [Example 20, (S)-5-((5-(2-(morpholin-2-ylmethoxy)-6-(trifluoromethoxy)phenyl)-1H-pyrazol-3-yl)amino)pyrazine-2-carbonitrile], at CHK1 kinase, the inhibition at 0.01 µM was 31%. For the same molecule, the IC50 was over 1000 nM in test [1] and 995 nM in test [2].
For the molecule `COc1cccc(OC[C@H]2CCCNC2)c1-c1cc(Nc2ccc(C#N)cn2)n[nH]1` [Example 24, (S)-6-((5-(2-methoxy-6-(piperidin-3-ylmethoxy)phenyl)-1H-pyrazol-3-yl)amino)nicotinonitrile], the inhibition at 0.01 µM on CHK1 kinase was determined as 89%. For the same molecule, the IC50 in test [1] is 70.8 nM; in test [2], 69.2 nM.
Taken in the same sequence, the figures for `COc1cccc(OC[C@H]2CCCNC2)c1-c1cc(Nc2ccc(C#N)nn2)n[nH]1` [Example 25, (S)-6-((5-(2-methoxy-6-(piperidin-3-ylmethoxy)phenyl)-1H-pyrazol-3-yl)amino)pyridazine-3-carbonitrile] were 91%, 104 nM and 113 nM.
Take `COc1cccc(OC[C@H]2CCCNC2)c1-c1cc(Nc2ncc(C#N)nc2C)n[nH]1` [Example 29, (S)-5-((5-(2-methoxy-6-(piperidin-3-ylmethoxy)phenyl)-1H-pyrazol-3-yl)amino)-6-methylpyrazine-2-carbonitrile]: the IC50 in test [1] and in test [2] was over 1000 nM throughout.
For `COc1cc(F)cc(OCC2CNCCC2(C)C)c1-c1cc(Nc2cnc(C#N)cn2)n[nH]1` (stereo not shown) [Example 50, 5-((5-(2-((4,4-dimethylpiperidin-3-yl)methoxy)-4-fluoro-6-methoxyphenyl)-1H-pyrazol-3-yl)amino)pyrazine-2-carbonitrile], the IC50 in test [1] is 35.2 nM; in test [2], 26.8 nM.
Turning to `COc1cccc(OC[C@H]2CCCNC2)c1-c1[nH]nc(Nc2cnc(C#N)cn2)c1C` [Example 51, (S)-5-((5-(2-methoxy-6-(piperidin-3-ylmethoxy)phenyl)-4-methyl-1H-pyrazol-3-yl)amino)pyrazine-2-carbonitrile], the IC50 in test [1] and in test [2] was over 1000 nM throughout.
Take `N#Cc1cnc(Nc2cc(-c3c(F)cc(Cl)cc3OC[C@@H]3CNCCO3)[nH]n2)cn1` [Example 58, (S)-5-((5-(4-chloro-2-fluoro-6-(morpholin-2-ylmethoxy)phenyl)-1H-pyrazol-3-yl)amino)pyrazine-2-carbonitrile]: the IC50 in test [1] is 913 nM; in test [2], over 1000 nM.
As for `N#Cc1cnc(Nc2cc(-c3c(F)cc(Br)cc3OC[C@@H]3CNCCO3)[nH]n2)cn1` [Example 60, (S)-5-((5-(4-bromo-2-fluoro-6-(morpholin-2-ylmethoxy)phenyl)-1H-pyrazol-3-yl)amino)pyrazine-2-carbonitrile], the IC50 in test [1] was 554 nM; in test [2] it was over 1000 nM.
In the case of `Cc1cc(F)c(-c2cc(Nc3cnc(C#N)cn3)n[nH]2)c(OCC2CNC2)c1` [Example 61, 5-((5-(2-(azetidin-3-ylmethoxy)-6-fluoro-4-methylphenyl)-1H-pyrazol-3-yl)amino)pyrazine-2-carbonitrile], the IC50 in test [1] is 97 nM; in test [2], 111 nM.
On to `Cc1cc(F)c(-c2cc(Nc3cnc(C#N)cn3)n[nH]2)c(OC[C@@H]2CNCCO2)c1` [Example 64, (S)-5-((5-(2-fluoro-4-methyl-6-(morpholin-2-ylmethoxy)phenyl)-1H-pyrazol-3-yl)amino)pyrazine-2-carbonitrile], for which the results for the IC50 in test [1] and in test [2] were 323 nM and 676 nM, respectively.
`COc1cc(C)cc(OCC2CNC2)c1-c1cc(Nc2cnc(C#N)cn2)n[nH]1` [Example 72, 5-((5-(2-(azetidin-3-ylmethoxy)-6-methoxy-4-methylphenyl)-1H-pyrazol-3-yl)amino)pyrazine-2-carbonitrile]: the IC50 worked out at 6 nM in test [1] and 5.7 nM in test [2].
Regarding `CCc1cc(OC)c(-c2cc(Nc3cnc(C#N)cn3)n[nH]2)c(OC[C@H]2CCCNC2)c1` [Example 75, (S)-5-((5-(4-ethyl-2-methoxy-6-(piperidin-3-ylmethoxy)phenyl)-1H-pyrazol-3-yl)amino)pyrazine-2-carbonitrile], the IC50 in test [1] is 3.2 nM; in test [2] it was 3.1 nM.
Take `COc1cc(F)cc(OC[C@@H]2CNCCS2)c1-c1cc(Nc2cnc(C#N)cn2)n[nH]1` [Example 77-A, (S)-5-((5-(4-fluoro-2-methoxy-6-(thiomorpholin-2-ylmethoxy)phenyl)-1H-pyrazol-3-yl)amino)pyrazine-2-carbonitrile]: the IC50 was found to be 3.1 nM in test [1] and 3.6 nM in test [2].
For `COc1cc(F)cc(OC[C@H]2CNCCS2)c1-c1cc(Nc2cnc(C#N)cn2)n[nH]1` [Example 77-B, (R)-5-((5-(4-fluoro-2-methoxy-6-(thiomorpholin-2-ylmethoxy)phenyl)-1H-pyrazol-3-yl)amino)pyrazine-2-carbonitrile] the same measures were 17.3 nM and 16.7 nM.
